Assay results taken from patent publication US20120065196A1, “AMIDE COMPOUNDS” (priority 2006, published 2012).

Molecular target: T1, human DGAT1 (Homo sapiens, UniProt O75907)
T1 construct: (N); made in house; host or cells: Sf9 insect cells infected with recombinant baculovirus BAC-DGAT1; microsome fraction
T1 sequence (O75907 1-488): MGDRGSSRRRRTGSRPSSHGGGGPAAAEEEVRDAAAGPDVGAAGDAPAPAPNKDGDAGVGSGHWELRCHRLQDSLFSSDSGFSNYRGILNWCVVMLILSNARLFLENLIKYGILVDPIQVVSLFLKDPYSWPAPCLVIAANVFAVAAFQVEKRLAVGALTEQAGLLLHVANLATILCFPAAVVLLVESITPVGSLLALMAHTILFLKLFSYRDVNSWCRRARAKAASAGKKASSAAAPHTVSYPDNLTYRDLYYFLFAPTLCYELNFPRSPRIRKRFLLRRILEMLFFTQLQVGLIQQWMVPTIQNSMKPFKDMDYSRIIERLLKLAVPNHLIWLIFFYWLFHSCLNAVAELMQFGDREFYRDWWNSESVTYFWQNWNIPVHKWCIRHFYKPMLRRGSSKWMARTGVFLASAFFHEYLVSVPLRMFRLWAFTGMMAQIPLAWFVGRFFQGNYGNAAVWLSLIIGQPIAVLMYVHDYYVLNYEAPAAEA
Assay: Determination of DGAT inhibitory activity (triglyceride synthesis with DGAT1 high expression Sf9 microsome)
Type: biochemical
Settings: 25 μM dioleoylglycerol, 25 μM [14C]-Oleoyl-CoA, 32° C., 20 min, read-out: hDGAT1 IC50
Procedure: Human DGAT1 gene was cloned by PCR using human adipocyte cDNA (Clontech, QUICK-Clone cDNA, human fat cell, cat #637220) as a template and, based on the DGAT1 gene information reported by Case, S. et al. (Proc. Natl. Acad. Sci. U.S.A. 95 (22), 13018-13023 (1998)), a nucleotide sequence (245-1711 of Genbank Accession No. NM_012079) encoding DGAT1 was amplified with the following PCR primer. The primer nucleotide sequence is shown below.
The PCR reaction was conducted using a KOD-plus kit (TOYOBO). The obtained PCR product was electrophoresed on agarose gel (1%), the DNA fragment amplified by PCR was recovered from the gel, and then digested with restriction enzymes EcoRI and SpeI. The DNA treated with the restriction enzymes was electrophoresed on agarose gel (1%), and the obtained DNA fragment was recovered and ligated with plasmid pFASTBAC1 (Invitrogen) digested with restriction enzymes EcoRI and SpeI to give expression plasmid pFB-DGAT1. The nucleotide sequence of the inserted fragment was confirmed and found to be identical with the nucleotide sequence of DGAT1 (245-1711 of Genbank Accession No. NM_012079). Furthermore, using BAC-TO-BAC Baculovirus Expression System (Invitrogen), recombinant baculovirus BAC-DGAT1 was prepared.
SF9 cells were sown at 1×10^6 cells/ml on Sf-900II SFM medium (1 L, Invitrogen) containing 10% fetal calf serum (Trace), 50 mg/L gentamicin (Invitrogen) and 0.1% Pluronic F-68 (Invitrogen), and shaking culture was performed using a 2 L volume Erlenmeyer flask at 27° C., 100 rpm. After culturing for 24 hrs, recombinant baculovirus BAC-DGAT1 (6.7 mL) was added, and the mixture was further cultured for 3 days. The culture medium was centrifuged at 2,000 rpm for 5 min to give virus-infected cells. The infected cells were washed with a phosphate buffered saline (Invitrogen), centrifuged under the same conditions, and the cells were preserved at −80° C. The cryopreserved cells were thawed in ice, suspended in buffer A (50 mM Tris buffer (30 mL, pH 7.4) containing 20% glycerol, 0.15 M NaCl) supplemented with Complete Protease Inhibitor (Boehringer), and ruptured 3 times with a Polytron homogenizer (Kinematica) at 20,000 rpm for 30 sec. The Sf9 microsome fractions were obtained by a conventional method and cryopreserved at −80° C. as a DGAT1 high expression Sf9 microsome.
As a DGAT1 reaction buffer, a solution having a composition of 100 mM Tris-HCl (pH 7.5), 250 mM sucrose, 150 mM MgCl2, 0.01% bovine serum albumin (BSA) was used. Using this buffer, a given concentration of the test compound and a composition (100 μl) of 25 μM dioleoylglycerol, 25 μM [^14C]-Oleoyl-CoA, 5 μg protein/ml DGAT1 high expression Sf9 microsome, and 1% acetone were subjected to a triglyceride synthesis reaction at 32° C. for 20 min. A mixture of 300 μL of chloroform:methanol (=1:2) was added to the reaction mixture to quench the reaction. The reaction mixture was sufficiently mixed and distilled water (200 μL) was added to partition the mixture between a chloroform layer (lower layer) and an aqueous layer (upper layer). The chloroform layer (50 μL) was spotted on a thin layer chromatography silica gel plate (TLC plate, Merck) and developed with a solvent (n-hexane:diethyl ether:ethyl acetate:acetic acid=255:30:15:0.6). The developed TLC plate was dried, contacted with a BAS imaging plate (manufactured by FUJIFILM) and measured with BAS2500 (manufactured by FUJIFILM) 16 hr later to numerically show the amount of [^14C]-triglyceride (TG amount) produced during the reaction. The inhibitory rate was calculated by the following formula:
Inhibitory rate (%)=(1−(TG amount with addition of test compound−blank TG amount)/(control TG amount−blank TG amount))×100 […]

Row | IC50 [nM] | Compound
1 | 100 to 1000 | CC(C)c1nnc([C@H]2CC[C@H](C(=O)NCCNC(=O)c3cn(-c4ccccc4)nc3C(F)(F)F)N(C)C2)o1 (relative stereo) [Example E267, trans-5-(5-isopropyl-1,3,4-oxadiazol-2-yl)-1-methyl-N-(2-(1-phenyl-3-(trifluoromethyl)-1H-pyrazole-4-carboxamido)ethyl)piperidine-2-carboxamide]
2 | 10 to 100 | CCCC1CCN(C(=O)NCCNC(=O)c2cn(-c3ccccc3)nc2C(F)(F)F)CC1 [Example E15, N-(2-(1-phenyl-3-(trifluoromethyl)-1H-pyrazole-4-carboxamido)ethyl)-4-propylpiperidine-1-carboxamide]
3 | 10 to 100 | O=C(NCCNC(=O)C1CCN(S(=O)(=O)c2ccccc2)CC1)c1cn(-c2ccccc2)nc1C(F)(F)F [Example E34, N-(2-(1-phenyl-3-(trifluoromethyl)-1H-pyrazole-4-carboxamido)ethyl)-1-(phenylsulfonyl)piperidine-4-carboxamide]
4 | 100 to 1000 | O=C(NCCNC(=O)N1CCC(C(=O)N2CCCC2)CC1)c1cn(-c2ccccc2)nc1C(F)(F)F [Example E63, N-(2-(1-phenyl-3-(trifluoromethyl)-1H-pyrazole-4-carboxamido)ethyl)-4-(pyrrolidine-1-carbonyl)piperidine-1-carboxamide]
5 | 10 to 100 | CC1CN(C(=O)NCCNC(=O)c2cn(-c3ccccc3)nc2C(F)(F)F)CCN1c1ccccc1 (centres unmarked) [Example E64, 3-methyl-4-phenyl-N-(2-(1-phenyl-3-(trifluoromethyl)-1H-pyrazole-4-carboxamido)ethyl)piperazine-1-carboxamide]
6 | 10 to 100 | O=C(NCCNC(=O)[C@H]1CC[C@H](C(=O)c2ccccc2)CC1)c1cn(-c2ccccc2)nc1C(F)(F)F [Example E65, N-(2-(trans-4-benzoylcyclohexanecarboxamido)ethyl)-1-phenyl-3-(trifluoromethyl)-1H-pyrazole-4-carboxamide]
7 | 10 to 100 | O=C(NCCNC(=O)C1CCN(S(=O)(=O)c2cccnc2)CC1)c1cn(-c2ccccc2)nc1C(F)(F)F [Example E74, N-(2-(1-phenyl-3-(trifluoromethyl)-1H-pyrazole-4-carboxamido)ethyl)-1-(pyridin-3-ylsulfonyl)piperidine-4-carboxamide]
8 | 100 to 1000 | O=C(N[C@H]1CC[C@H](C(=O)NCCNC(=O)c2cn(-c3ccccc3)nc2C(F)(F)F)CC1)c1ccccc1 [Example E91, N-(2-(trans-4-Benzamidocyclohexanecarboxamido)ethyl)-1-phenyl-3-(trifluoromethyl)-1H-pyrazole-4-carboxamide]
9 | 100 to 1000 | O=C(NCCNC(=O)N1CCc2nc[nH]c2C1)c1cn(-c2ccccc2)nc1C(F)(F)F [Example E95, N-(2-(1-phenyl-3-(trifluoromethyl)-1H-pyrazole-4-carboxamido)ethyl)-6,7-dihydro-3H-imidazo[4,5-c]pyridine-5(4H)-carboxamide]
10 | 10 to 100 | O=C(NCCNC(=O)N1CCC(c2nc(-c3cccnc3)no2)CC1)c1cn(-c2ccccc2)nc1C(F)(F)F [Example E101, N-(2-(1-phenyl-3-(trifluoromethyl)-1H-pyrazole-4-carboxamido)ethyl)-4-(3-(pyridin-3-yl)-1,2,4-oxadiazol-5-yl)piperidine-1-carboxamide]
11 | < 10 | O=C(NCCNC(=O)C1CCC(c2ccccc2)CC1)c1cn(-c2ccccc2)nc1C(F)(F)F (centres unmarked) [Example E105, 1-phenyl-N-(2-(4-phenylcyclohexanecarboxamido)ethyl)-3-(trifluoromethyl)-1H-pyrazole-4-carboxamide]
12 | 100 to 1000 | O=C(NCCNC(=O)N1CCC(NS(=O)(=O)c2ccccc2)CC1)c1cn(-c2ccccc2)nc1C(F)(F)F [Example E114, N-(2-(1-Phenyl-3-(trifluoromethyl)-1H-pyrazole-4-carboxamido)ethyl)-4-(phenylsulfonamido)piperidine-1-carboxamide]
13 | 10 to 100 | CC(C)CN(C)C(=O)[C@H]1CC[C@H](C(=O)NCCNC(=O)c2cn(-c3ccccc3)nc2C(F)(F)F)CC1 [Example E126, trans-N1-isobutyl-N-1-methyl-N4-(2-(1-phenyl-3-(trifluoromethyl)-1H-pyrazole-4-carboxamido)ethyl)cyclohexane-1,4-dicarboxamide]
14 | < 10 | O=C(NCCNC(=O)[C@H]1CC[C@H](C(=O)c2ccccc2)CC1)c1cn(-c2ccccn2)nc1C(F)(F)F [Example E150, N-(2-(trans-4-benzoylcyclohexanecarboxamido)ethyl)-1-(pyridin-2-yl)-3-(trifluoromethyl)-1H-pyrazole-4-carboxamide]
15 | 10 to 100 | O=C(NCCNC(=O)[C@H]1CC[C@H](c2nc(C3CC3)no2)CC1)c1cn(-c2ccccc2)nc1C(F)(F)F [Example E151, N-(2-(trans-4-(3-Cyclopropyl-1,2,4-oxadiazol-5-yl)cyclohexanecarboxamido)ethyl)-1-phenyl-3-(trifluoromethyl)-1H-pyrazole-4-carboxamide]
16 | 10 to 100 | CC(C)c1nnc([C@H]2CC[C@H](C(=O)NCCNC(=O)c3cn(-c4ccccc4)nc3C(F)(F)F)CC2)o1 [Example E163, N-(2-(trans-4-(5-isopropyl-1,3,4-oxadiazol-2-yl)cyclohexanecarboxamido)ethyl)-1-phenyl-3-(trifluoromethyl)-1H-pyrazole-4-carboxamide]
17 | 10 to 100 | O=C(NCCNC(=O)[C@H]1CC[C@H](C(=O)c2ccccc2)CC1)c1cn(-c2ccccc2Cl)nc1C(F)(F)F [Example E164, N-(2-(trans-4-benzoylcyclohexanecarboxamido)ethyl)-1-(2-chlorophenyl)-3-(trifluoromethyl)-1H-pyrazole-4-carboxamide]
18 | 100 to 1000 | O=C(NCCNC(=O)[C@H]1CC[C@H](C(=O)NCCF)CC1)c1cn(-c2ccccc2)nc1C(F)(F)F [Example E165, trans-N1-(2-fluoroethyl)-N4-(2-(1-phenyl-3-(trifluoromethyl)-1H-pyrazole-4-carboxamido)ethyl)cyclohexane-1,4-dicarboxamide]
19 | 100 to 1000 | O=C(NCCNC(=O)[C@H]1CC[C@H](c2nc(-c3ccccc3)c[nH]2)CC1)c1cn(-c2ccccc2)nc1C(F)(F)F [Example E172, 1-Phenyl-N-(2-(trans-4-(4-phenyl-1H-imidazol-2-yl)cyclohexanecarboxamido)ethyl)-3-(trifluoromethyl)-1H-pyrazole-4-carboxamide]
20 | 10 to 100 | O=C(NCCNC(=O)C1CCc2nc(-c3ccccc3)sc2C1)c1cn(-c2ccccc2)nc1C(F)(F)F (centres unmarked) [Example E175, 2-phenyl-N-(2-(1-phenyl-3-(trifluoromethyl)-1H-pyrazole-4-carboxamido)ethyl)-4,5,6,7-tetrahydrobenzo[d]thiazole-6-carboxamide]
